Source: ChEMBL document CHEMBL2401737 (J Med Chem, 2013)

How the values were obtained:
[1] = system: Human immunodeficiency virus; test: Antiviral activity against Human immunodeficiency virus harboring integrase Q148K mutant infected in human HeLa cells expressing CD4 after 2 days by beta galactosidase assay relative to wild type HIV; assay type: functional
[2] = system: Human immunodeficiency virus; test: Antiviral activity against pseudo Human immunodeficiency virus infected in HEK293T cells after 2 days in presence of human serum albumin; assay type: functional, organism-based; conditions: Human immunodeficiency virus 1, HEK-293T, 48 h
[3] = system: Human immunodeficiency virus; test: Antiviral activity against pseudo Human immunodeficiency virus infected in HEK293T cells after 2 days; assay type: functional, organism-based; conditions: Human immunodeficiency virus 1, HEK-293T, 48 h
[4] = system: Human immunodeficiency virus; test: Ratio of IC50 for pseudo Human immunodeficiency virus to IC50 for pseudo Human immunodeficiency virus in presence of human serum albumin; assay type: functional
[5] = system: Human immunodeficiency virus 1; test: Antiviral activity against Human immunodeficiency virus 1 3B infected in human MT4 cells after 4 to 5 days by bioluminescence assay in presence of human serum relative to control; assay type: functional
[6] = system: Human immunodeficiency virus 1; test: Antiviral activity against Human immunodeficiency virus 1 3B infected in human MT4 cells after 4 to 5 days by bioluminescence assay; assay type: functional, organism-based
[7] = system: Human immunodeficiency virus 1; test: Antiviral activity against Human immunodeficiency virus 1 Ba-L infected human PBMC after 7 days by [methyl-3H]dTTP incorporation assay; assay type: functional, organism-based; conditions: 168 h
[8] = Oral bioavailability in rat; assay type: ADME, organism-based; conditions: in vivo
[9] = Clearance in iv dosed rat; assay type: ADME, organism-based; conditions: in vivo
[10] = target: Human immunodeficiency virus type 1 integrase (Human immunodeficiency virus 1, UniProt Q7ZJM1); test: Inhibition of HIV-1 integrase strand transfer activity using [3H]-DNA as substrate preincubated for 60 mins prior to substrate addition measured after 25 to 45 mins
Sequence of Human immunodeficiency virus type 1 integrase (Q7ZJM1 whole entry): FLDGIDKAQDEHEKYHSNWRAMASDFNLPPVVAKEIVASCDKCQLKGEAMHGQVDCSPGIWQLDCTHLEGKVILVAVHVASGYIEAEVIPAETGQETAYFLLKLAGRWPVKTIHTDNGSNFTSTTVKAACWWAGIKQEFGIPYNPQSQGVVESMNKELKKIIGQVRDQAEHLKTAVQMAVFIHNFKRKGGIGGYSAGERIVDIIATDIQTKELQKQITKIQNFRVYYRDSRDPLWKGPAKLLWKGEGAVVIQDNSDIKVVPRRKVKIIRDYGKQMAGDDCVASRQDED

Row | Structure (SMILES) | fold change (FC) [1] | IC50 [2] | IC50 [3] | also measured
1 | CC(C)C[C@@H]1CO[C@H]2Cn3cc(C(=O)NCc4ccc(F)cc4F)c(=O)c(O)c3C(=O)N12 | 51 | 16 nM | 3.2 nM | –
2 | CC1(C)CO[C@@H]2Cn3cc(C(=O)NCc4ccc(F)cc4)c(=O)c(O)c3C(=O)N2C1 | 8.1 | 7.9 nM | 2 nM | –
3 | O=C(NCc1ccc(F)cc1F)c1cn2c(c(O)c1=O)C(=O)N1CC[C@@H](c3ccccc3)O[C@H]1C2 | 8.5 | 50 nM | 5.6 nM | –
4 | O=C(NCc1ccc(F)cc1F)c1cn2c(c(O)c1=O)C(=O)N1[C@@H](CC3CCCCC3)CO[C@@H]1C2 | >15 | 3100 nM | 330 nM | –
5 | C[C@@H]1CO[C@H]2Cn3cc(C(=O)NCc4ccc(F)cc4)c(=O)c(O)c3C(=O)N2C1 | 36 | 210 nM | 0.8 nM | –
6 | C[C@H]1CCO[C@@H]2Cn3cc(C(=O)NCc4ccc(F)cc4F)c(=O)c(O)c3C(=O)N12 | 2.2 | 4 nM | 0.5 nM | –
7 | O=C(NCc1ccc(F)cc1F)c1cn2c(c(O)c1=O)C(=O)N1[C@H](Cc3ccccc3)CO[C@H]1C2 | 19 | 4.5 nM | 0.6 nM | Ratio IC50 [4]: >7
8 | C[C@@H]1CCO[C@H]2Cn3cc(C(=O)NCc4ccc(F)cc4F)c(=O)c(O)c3C(=O)N12 [DOLUTEGRAVIR] | 0.4 | 22 nM | 1.7 nM | fold change (FC) [5]: 75; IC50 [6]: 2 nM; IC50 [7]: 0.5 nM; IC90 [2]: 0.0374 µg/mL
9 | Cc1nnc(C(=O)NC(C)(C)c2nc(C(=O)NCc3ccc(F)cc3)c([O-])c(=O)n2C)o1.[K+] [RALTEGRAVIR POTASSIUM] | 79 | 7.1 nM | 2 nM | Ratio IC50 [4]: 77
10 | O=C(NCc1ccc(F)cc1)c1cn2c(c(O)c1=O)C(=O)N1CCCOC1C2 (racemic) | 2.8 | 20 nM | 1.9 nM | bioavailability [8]: 51%; clearance [9]: 0.1 mL/min/kg
11 | CC[C@@H]1CO[C@H]2Cn3cc(C(=O)NCc4ccc(F)cc4F)c(=O)c(O)c3C(=O)N12 | 63 | 35 nM | 8.5 nM | –
12 | C[C@H]1CO[C@@H]2Cn3cc(C(=O)NCc4ccc(F)cc4F)c(=O)c(O)c3C(=O)N2C1 | 5.7 | 5.2 nM | 0.5 nM | –
13 | CC(C)[C@@H]1CCN2C(=O)c3c(O)c(=O)c(C(=O)NCc4ccc(F)cc4F)cn3C[C@@H]2O1 | 8.1 | 20 nM | 2 nM | –
14 | CC[C@H]1CCN2C(=O)c3c(O)c(=O)c(C(=O)NCc4ccc(F)cc4F)cn3C[C@H]2O1 | 2.2 | 3.1 nM | 0.5 nM | –
15 | C[C@H]1CCN2C(=O)c3c(O)c(=O)c(C(=O)NCc4ccc(F)cc4F)cn3C[C@H]2O1 | 2.8 | 1.5 nM | 0.5 nM | –
16 | CC(C)[C@H]1CO[C@@H]2Cn3cc(C(=O)NCc4ccc(F)cc4F)c(=O)c(O)c3C(=O)N12 | 100 | 300 nM | 4.8 nM | –
17 | C[C@H]1CCN2C(=O)c3c(O)c(=O)c(C(=O)NCc4ccc(F)cc4)cn3C[C@H]2O1 | – | 3.3 nM | 1.3 nM | –
18 | C[C@@H]1CO[C@H]2Cn3cc(C(=O)NCc4ccc(F)cc4F)c(=O)c(O)c3C(=O)N12 | 35 | 39 nM | 5.4 nM | Ratio IC50 [4]: >7
19 | O=C(NCc1ccc(F)cc1)c1cn2c(c(O)c1=O)C(=O)N1CCCO[C@H]1C2 | 2.4 | 81 nM | 1.9 nM | Ratio IC50 [4]: 43; bioavailability [8]: 79%; clearance [9]: 0.1 mL/min/kg
20 | CC(C)(C)[C@H]1CO[C@@H]2Cn3cc(C(=O)NCc4ccc(F)cc4)c(=O)c(O)c3C(=O)N21 | 74 | 35 nM | 4 nM | –
21 | O=C(NCc1ccc(F)cc1F)c1cn2c(c(O)c1=O)C(=O)N1[C@@H](Cc3ccccc3)CO[C@@H]1C2 | 13 | 380 nM | 13 nM | –

Row | Structure (SMILES) | fold change (FC) [1] | IC50 [2] | IC50 [3] | also measured
22 | C[C@H]1CO[C@@H]2Cn3cc(C(=O)NCc4ccc(F)cc4)c(=O)c(O)c3C(=O)N12 | 13 | 50 nM | 2.1 nM | –
23 | C[C@@H]1CCN2C(=O)c3c(O)c(=O)c(C(=O)NCc4ccc(F)cc4)cn3C[C@@H]2O1 | – | 25 nM | 2.1 nM | IC50 [10]: 5 nM; Ratio IC50 [4]: 12
24 | O=C(NCc1ccc(F)cc1F)c1cn2c(c(O)c1=O)C(=O)N1[C@@H](CO)CO[C@@H]1C2 | 12 | 37 nM | 10 nM | –
25 | O=C(NCc1ccc(F)cc1)c1cn2c(c(O)c1=O)C(=O)N1CCCO[C@@H]1C2 | 11 | 9.4 nM | 2.2 nM | bioavailability [8]: 52%; clearance [9]: 0.17 mL/min/kg
26 | CCCC[C@H]1CO[C@@H]2Cn3cc(C(=O)NCc4ccc(F)cc4F)c(=O)c(O)c3C(=O)N12 | >57 | 1800 nM | 87 nM | –
27 | CS(=O)(=O)CC[C@H]1CO[C@@H]2Cn3cc(C(=O)NCc4ccc(F)cc4F)c(=O)c(O)c3C(=O)N12 | >10 | 370 nM | 430 nM | –
28 | CSCC[C@H]1CO[C@@H]2Cn3cc(C(=O)NCc4ccc(F)cc4F)c(=O)c(O)c3C(=O)N12 | – | 18 nM | 3.1 nM | –
29 | CC(C)[C@@H]1CO[C@H]2Cn3cc(C(=O)NCc4ccc(F)cc4F)c(=O)c(O)c3C(=O)N21 | 73 | 16 nM | 4 nM | –
30 | O=C(NCc1ccc(F)cc1F)c1cn2c(c(O)c1=O)C(=O)N1[C@@H](c3ccccc3)CO[C@@H]1C2 | 44 | 620 nM | 72 nM | –
31 | CC(C)(C)[C@H]1CO[C@@H]2Cn3cc(C(=O)NCc4ccc(F)cc4F)c(=O)c(O)c3C(=O)N21 | 130 | 130 nM | 20 nM | –
32 | CC(C)[C@H]1CCN2C(=O)c3c(O)c(=O)c(C(=O)NCc4ccc(F)cc4F)cn3C[C@H]2O1 | 1.9 | 4.1 nM | 0.7 nM | –
33 | CC1(C)CO[C@H]2Cn3cc(C(=O)NCc4ccc(F)cc4)c(=O)c(O)c3C(=O)N2C1 | 3.6 | 440 nM | 1.1 nM | –
34 | COC[C@H]1CCN2C(=O)c3c(O)c(=O)c(C(=O)NCc4ccc(F)cc4F)cn3C[C@H]2O1 | 3.5 | 0.9 nM | 0.4 nM | Ratio IC50 [4]: 2
35 | CC[C@H](C)[C@H]1CO[C@@H]2Cn3cc(C(=O)NCc4ccc(F)cc4F)c(=O)c(O)c3C(=O)N12 | 200 | 200 nM | 20 nM | –
36 | CC[C@@H]1CCN2C(=O)c3c(O)c(=O)c(C(=O)NCc4ccc(F)cc4F)cn3C[C@@H]2O1 | 4.6 | 9.4 nM | 0.7 nM | –
37 | C[C@@H]1CCN2C(=O)c3c(O)c(=O)c(C(=O)NCc4ccc(F)cc4F)cn3C[C@@H]2O1 | 2.1 | 7 nM | 0.9 nM | –
38 | C[C@H]1CO[C@@H]2Cn3cc(C(=O)NCc4ccc(F)cc4)c(=O)c(O)c3C(=O)N2C1 | 9.9 | 5.6 nM | 0.7 nM | –
39 | O=C(NCc1ccc(F)cc1F)c1cn2c(c(O)c1=O)C(=O)N1[C@@H](Cc3ccc(O)cc3)CO[C@@H]1C2 | 1.6 | 22 nM | 2.1 nM | –
40 | CC[C@H]1CO[C@@H]2Cn3cc(C(=O)NCc4ccc(F)cc4F)c(=O)c(O)c3C(=O)N12 | – | 63 nM | 0.9 nM | –
41 | O=C(NCc1ccc(F)cc1F)c1cn2c(c(O)c1=O)C(=O)N1[C@@H](Cc3c[nH]c4ccccc34)CO[C@@H]1C2 | 22 | 71 nM | 1.6 nM | –
42 | COC[C@@H]1CCN2C(=O)c3c(O)c(=O)c(C(=O)NCc4ccc(F)cc4F)cn3C[C@@H]2O1 | 5 | 2.3 nM | 1.4 nM | Ratio IC50 [4]: 2
